Laboratory results from patent US20060199849A1, “Solid lercanidipine free base” (Recordati Ireland Limited, priority 2005, published 2006).
Structures can show the parent of a compound that is named as a salt.

Test: Comparison of physical properties: solubility in esters, ketones, ethers
Assay type: physicochemical
Settings: organic solvents: esters
Method: The following is a comparative example, comparing substantially pure lercanidipine free base prepared as described in example 1 (a to d) with crude free base prepared by the method of U.S. Pat. No. 4,705,797 and lercanidipine hydrochloride. Crude free base was prepared as described below. Lercanidipine hydrochloride was obtained from Recordati S.p.A., Milan, Italy.

Compound	Solubility in esters, ketones, ethers	Solubility in esters, ketones, ethers (hydrochloride)
COC(=O)C1=C(C)NC(C)=C(C(=O)OC(C)(C)CN(C)CCC(c2ccccc2)c2ccccc2)C1c1cccc([N+](=O)[O-])c1 (centres unmarked) [Crude Free Base, methyl 1,1,N-trimethyl-N-(3,3-diphenylpropyl)-2-aminoethyl 1,4-dihydro-2,6-dimethyl-4-(3-nitrophenyl)pyridine-3,5-dicarboxylate]	Very soluble	–
COC(=O)C1=C(C)NC(C)=C(C(=O)OC(C)(C)CN(C)CCC(c2ccccc2)c2ccccc2)C1c1cccc([N+](=O)[O-])c1 (centres unmarked) [Lercanidipine Hydrochloride, lercanidipine hydrochloride]	–	insoluble
